# Results from patent US6872805B2 (Bristol-Myers Squibb Company, priority 2000, dated 2005).
# Where two headings read alike, the source gives them in different places.
# Tests used:
# [1] = system: HCV replicon in Huh7 cells; assay: HCV replicon cell-based assay; set-up: species or system HCV strain 1B; settings: Hepatitis C virus, HCV replicon, Huh7 cells
# How it was run: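 Genotype 1b subgenomic replicon Huh7 cells exposed to compound 4 days at 37° C in 4% FCS, 0.5% DMSO medium. EC50 from TaqMan RT-PCR of HCV RNA, normalized to total RNA by RiboGreen; CC50 from alamar Blue fluorescence after 4 h.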
# [2] = target: HCV NS3/4A protease complex (Hepatitis C virus genotype 1a, UniProt P27958, C1454S/C1711G); assay: Recombinant HCV NS3/4A protease complex FRET peptide assay (strain not stated); format: biochemical
# Sequence of HCV NS3/4A protease complex (P27958 1027-1711, stated change not applied): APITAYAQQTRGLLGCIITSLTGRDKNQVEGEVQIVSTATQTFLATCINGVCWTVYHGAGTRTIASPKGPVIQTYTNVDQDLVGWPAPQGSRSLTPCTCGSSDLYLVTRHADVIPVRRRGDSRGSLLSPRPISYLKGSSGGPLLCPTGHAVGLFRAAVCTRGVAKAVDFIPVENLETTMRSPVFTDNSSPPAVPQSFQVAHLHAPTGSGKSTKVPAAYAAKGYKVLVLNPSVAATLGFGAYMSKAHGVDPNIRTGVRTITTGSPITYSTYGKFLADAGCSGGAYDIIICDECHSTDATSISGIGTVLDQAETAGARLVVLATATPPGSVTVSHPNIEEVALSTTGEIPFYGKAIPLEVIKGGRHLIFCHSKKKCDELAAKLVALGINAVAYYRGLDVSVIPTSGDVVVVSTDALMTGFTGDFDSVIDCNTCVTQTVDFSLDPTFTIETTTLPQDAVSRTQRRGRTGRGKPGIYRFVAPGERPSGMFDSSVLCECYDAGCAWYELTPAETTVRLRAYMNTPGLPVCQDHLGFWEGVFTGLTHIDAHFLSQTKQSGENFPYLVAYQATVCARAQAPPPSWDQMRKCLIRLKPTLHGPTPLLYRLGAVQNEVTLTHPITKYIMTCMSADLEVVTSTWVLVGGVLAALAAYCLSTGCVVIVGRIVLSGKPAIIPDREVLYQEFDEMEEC
# Sequence of HCV NS3/4A protease complex (P27958 1027-1711, stated change not applied): as above
compound,measurement,setting,value
C=CC1C[C@]1(NC(=O)[C@@H]1C[C@@H](Oc2cc(-c3ccccc3)nc3cc(OC)ccc23)CN1C(=O)C(NC(=O)OC(C)(C)C)C(C)(C)C)C(=O)NS(=O)(=O)c1ccc(NC(C)=O)cc1 (stereo partly shown) [Compound 58],EC50,"[1]; Huh-7, 96 h, 4 days, activity ranges, read-out: EC50",< 500 nM
same,EC50,"[1]; Huh-7, read-out: EC50 value in the replicon assay",250 nM
same,IC50,"[2]; IC50, NS3/4A protease enzyme assay, strain not stated, activity ranges",< 50 nM
same,IC50,"[2]; IC50, strain not stated",21 nM
